Biological target: T1, Dihydroorotate dehydrogenase (quinone), mitochondrial (Plasmodium falciparum (isolate 3D7), UniProt Q08210)
T1 sequence (Q08210 whole entry): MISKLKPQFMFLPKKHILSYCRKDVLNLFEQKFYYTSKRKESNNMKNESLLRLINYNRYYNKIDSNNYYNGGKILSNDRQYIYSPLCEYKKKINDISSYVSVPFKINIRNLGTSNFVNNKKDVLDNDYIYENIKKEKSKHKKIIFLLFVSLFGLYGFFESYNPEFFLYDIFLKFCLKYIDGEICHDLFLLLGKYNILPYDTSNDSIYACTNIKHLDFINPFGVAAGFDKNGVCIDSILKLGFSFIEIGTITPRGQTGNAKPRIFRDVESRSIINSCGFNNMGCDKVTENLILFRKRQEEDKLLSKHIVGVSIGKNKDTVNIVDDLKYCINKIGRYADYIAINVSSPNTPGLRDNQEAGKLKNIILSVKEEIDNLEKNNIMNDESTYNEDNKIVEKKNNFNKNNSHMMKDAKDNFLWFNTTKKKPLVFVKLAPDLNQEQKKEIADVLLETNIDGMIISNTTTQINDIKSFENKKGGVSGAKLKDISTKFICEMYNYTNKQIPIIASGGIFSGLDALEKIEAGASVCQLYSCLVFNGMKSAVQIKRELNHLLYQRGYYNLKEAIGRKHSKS
Experiment: DHODH Inhibition Assay
Details: pH 8; 25 °C
Description: The assays were carried out by using a colorimetric DCIP method, which uses the colorimetric reagent 2, 6-dichlorophenolindophenol as the final electron acceptor. DCIP reduction is stoichiometrically equivalent to oxidation of dihydroorotate. Changes in absorbance were quantified in triplicate on a plate reader and data were analyzed to measure the reduction of DCIP as a decrease in absorbance at 600 nm. The data were then processed with Graphpad Prism to determine the IC50 and the apparent enzyme inhibition constant (Ki) for each inhibitor. Ki values were calculated using the Cheng-Prusoff equation with the Km for CoQD of 13 uM and 15 uM for PfDHODH and HsDHODH respectively.

IC50 [µM] | SMILES
> 200 | CN(C(=O)c1ccc2ccccc2c1)c1ccccc1C(=O)O [2-[methyl(naphthalene-2-)amido]benzoic acid]
> 200 | O=C(Nc1ccccc1C(=O)O)c1ccc2ccccc2c1 [2-(naphthalene-2-amido)benzoic acid]

Source: BindingDB's records for doi:10.1016/j.bmcl.2005.09.045 (University of Leeds, 2006)
